Experimental data from patent publication EP3906926A1, “PROLINE HYDROXYLASE INHIBITORS FOR USE IN THE SKELETAL MUSCLE REGENERATION” (Policlinico San Donato S.p.A.- Istituto di Ricovero e Cura …, priority 2020, dated 2021).

What was measured:
[1] = tested on: murine myoblasts C2C12; assay: Skeletal muscle differentiation, MHC immunofluorescence (fusion and differentiation indexes); format: cell-based; settings: IOX2 or FG-4592 24 hours in GM, then 7 days in DM without inhibitor; vs untreated controls
Experimental: (§1) The DM was changed every day for 7 days. Cells were analyzed at 24 hours post-treatment (PT), at 3rd and 7th days of skeletal muscle differentiation.
(§2) After differentiation for 7 days in DM, cells were washed with phosphate saline buffer (PBS) and fixed for 15 minutes in 4% (w/v) paraformaldehyde at room temperature. For permeabilization and blocking, cells were incubated for 1 hour in the presence of PBS 0.1% (v/v) Triton X-100 (TX-100, Merck) and 5% (w/v) FBS (Merck) at room temperature. […] After incubation, cells were washed three times in PBS and incubated for 1 hour at room temperature with an anti-mouse FITC-conjugated secondary antibody (Jackson ImmunoResearch), diluted 1:200. […] Myogenesis was assessed by measuring the myotube area and the number of myonuclei per myotube using a fluorescent microscope (Olympus TH4-200) equipped with an acquisition camera. To quantify both differentiation and fusion indexes, ten fields were chosen randomly and, for each field, a minimum of one hundred myosin-positive myotubes with more than two myonuclei were measured using the ImageJ v1.49o software. The area and the number of nuclei per myotube was the mean of ten measurements averaged from three different experiments.
as §1

[2] = tested on: MHC; assay: qPCR of MHC during differentiation; format: cell-based, murine; settings: day 7 of differentiation, IOX2 or FG-4592 pre-treated myoblasts
Experimental: (§3) Total RNA was isolated using ReliaPrep™ RNA Miniprep Systems (Promega), and reverse transcribed to cDNA using the iScript cDNA synthesis kit (BioRad), according to the Manufacturer's instructions. Real-Time Quantitative PCR was performed on 10 ng of cDNA template, 0.2 µM primers, and GoTaq® qPCR Master Mix (Promega) in 20 µl final volume using a StepOnePlus® Real-Time PCR System (Applied Biosystem). […] RPL13 was used as the housekeeping gene. The amplification program consisted in an initial denaturation at 95°C for 3 minutes, followed by 40 cycles of 5 seconds each at 95°C and 30 seconds at 57°C; WNT7a was amplified at 53°C. Relative quantification of target genes was performed in triplicate and calculated by the equation 2^-ΔΔCt.
as §3, with “ReliaPrepTM” for “ReliaPrep™”, “2-ΔΔCt.” for “2^-ΔΔCt.”

[3] = tested on: WNT7a promoter; assay: Nano-Glo luciferase reporter assay of pNL1.1-WNT7a promoter activity; format: cell-based, murine; settings: 24 hours at IC50 working concentrations
Experimental: Genomic DNA was extracted from C2C12 murine myoblast and used as the template for WNT7a promoter amplification. The PCR reaction was prepared using a Phusion High-Fidelity kit (New England Biolabs) and employing the following primers: forward 5'-[…]-3' (SEQ ID NO:1), containing KpnI enzymatic site, and reverse 5'-[…]-3' (SEQ ID NO:2) containing the HindIII enzymatic site. The PCR fragment and the vector pNL1.1(Nluc) (Promega) were digested with KnpI and HindIII (Promega) restriction enzymes for 2 hours at 37°C and, then, they were purified from agarose gel using Wizard® SV Gel and PCR Clean-Up System (Promega). The fragment was inserted into the multiple cloning site of pNL1.1 vector using T4 Ligase Fast (Promega) and the reaction was incubated for 1 hour at room temperature. The presence of the insert in the plasmid was finally verified by DNA sequencing.
Briefly, cells were seeded in a 96-well plate at a concentration of 5 x 10^3 cells per well, transfected with the pNL1.1 or pNL1.1WNT7a_promoter (90 ng) plasmids and pGL4.54(luc2/TK) (10 ng) plasmid as internal control, according to ViaFect Transfection Reagent® protocol (Promega), and then incubated for 24 hours. […] To turn off the luminescence of the Firefly luciferase and provide the substrate for the Nanoluc, an equal volume of NanoDLR™ Stop&Glo® Reagent was added to the mixture and incubated for 30 minutes before analysis.

[4] = tested on: WNT7a silenced murine myoblasts (WNT7a-KO); assay: Differentiation of WNT7a-KO versus wild type myoblasts after chemical hypoxia (fusion and differentiation indexes); format: cell-based; settings: WNT7a-KO vs wild type cells, 24 hours inhibitor pre-treatment then 7 days differentiation
Experimental: as §2
Therefore, WNT7a silencing was conducted by Crispr/Cas9 genome editing in C2C12 murine myoblasts and the effects on myogenesis were evaluated.
The knockout of WNT7a gene was obtained performing CRISPR/Cas9 genome editing. In particular, crRNAs and tracrRNA were obtained from TrueGuide™ Synthetic gRNA kit (ThermoFisher Scientific) and they were reconstituted and annealed following the manufacturer's instructions. […] Briefly, they were re-suspended using 1X Tris-EDTA buffer pH 8.0 to prepare a 100 µM stock solution. Then, gRNAs were generated preparing a mix composed of 10 µL crRNA, 10 µL tracrRNA, 10 µL annealing buffer, and 20 µL nuclease-free water. The mixture was incubated at 95 °C for 5 minutes followed by 10 mins on 78 °C, and then 25 °C for 5 minutes.
The transfection was performed seeding 5 x 10^5 murine myoblasts C2C12 in a 24-well plate.
The diluted Lipofectamine ™ CRISPRMAX ™ reagent in Opti-MEM I Medium was incubated 1 minute at room temperature and, then, it was added to gRNA/Opti-MEM I solution for 15 minutes. Then, the mixture was added to murine myoblasts and it was incubated at 37°C for 2 days. After the incubation, single-cell clones were isolated using a limiting dilution cloning in 96-well plates. The efficiency of WNT7a knockout (WNT7a-KO) was verified by sequencing.

[5] = tested on: C2C12 murine myoblasts; assay: RealTime-Glo MT Cell Viability Assay; settings: at IC50 concentrations (50 µM IOX2, 40 µM FG-4592), 24 hours, vs untreated controls
Experimental: RealTime-Glo™ kits MT Cell Viability Assay (Promega) was used to investigate the effects of IOX2 and FG-4592 treatment on cell viability. Briefly, 5 x 10^3 C2C12 murine myoblasts were seeded in a 96 well plate and incubated for 24 hours (T0) with MT Cell Viability Substrate (1:1000 dilution) and NanoLuc® Enzyme (1:1000 dilution). Then, 50 µM IOX2 or 40 µM FG-4592 were added to the cell cultures and incubated for other 24 hours before luminescence analysis.
RealTime-Glo™ kits MT Cell Viability Assay (Promega) was used to investigate the effects of PLG treatment on cell viability. Briefly, 5 x 10^3 C2C12 murine myoblasts were seeded in a 96 well plate and incubated for 24 hours (T0) with MT Cell Viability Substrate (1:1000 dilution) and NanoLuc® Enzyme (1:1000 dilution). Then, each PLG inhibitor was added at its EC50 to the cell cultures and incubated for other 24 hours before luminescence analysis.

Compound | increase in the differentiation index [1] [fold] | enhancement of MHC [2] [fold] | WNT7a promoter activation, luminescence increase [3] [fold] | decrease in fusion index [4] [%] | reduction in differentiation index [4] | Cell viability [5] | fusion index [1]
Cc1nc(C(=O)NCC(=O)O)c(O)c2ccc(Oc3ccccc3)cc12 [FG-4592, Roxadustat] | 1.3 | 2.3 | 1.3 | 63 | 15% | no significant changes | 
O=C(O)CNC(=O)c1c(O)c2ccccc2n(Cc2ccccc2)c1=O [IOX2] | 1.5 | 2.2 | 1.4 | 67 | no significant changes | no significant changes | no significant changes
